The source made the active and inactive calls. The rule behind the calls is not given here.
How the values were obtained:
Acanthamoeba hatchetti [1] = assay: Amoebicidal activity against Trophozoites of Acanthamoeba hatchetti 11DS assessed as log reduction in cell count at 20 mM in peptone yeast extract glucose medium at pH 7 after 24 hrs by hemocytometer using trypan blue stain; format: functional
Acanthamoeba polyphaga [2] = assay: Amoebicidal activity against Trophozoites of Acanthamoeba polyphaga 5SU assessed as reduction killing time at 55 mM in phosphate buffered saline at pH 7 by hemocytometer using trypan blue stain in presence of 190 mM ammonium chloride; format: functional, organism-based
Acanthamoeba polyphaga [3] = assay: Amoebicidal activity against Trophozoites of Acanthamoeba polyphaga 5SU assessed as reduction in cell count at 20 mM in peptone yeast extract glucose medium at pH 7 after 6 hrs by hemocytometer using trypan blue stain in presence of 580 mM ammonium chloride; format: functional, organism-based
Acanthamoeba polyphaga [4] = assay: Amoebicidal activity against Trophozoites of Acanthamoeba polyphaga 5SU in peptone yeast extract glucose medium at pH 7 after 6 hrs by hemocytometer using trypan blue stain in presence of 68 mM ammonium chloride; format: functional, organism-based
Acanthamoeba polyphaga [5] = assay: Amoebicidal activity against excysted trophozoites of Acanthamoeba polyphaga 5SU at 55 mM in peptone yeast extract glucose medium after 24 hrs by hemocytometer using trypan blue stain; format: functional
Acanthamoeba polyphaga [6] = assay: Amoebicidal activity against Trophozoites of Acanthamoeba polyphaga 5SU assessed as prevention of sporadic cysts formation at 55 mM in phosphate buffered saline at pH 7 by hemocytometer using trypan blue stain; format: functional, organism-based
Acanthamoeba hatchetti [7] = assay: Amoebicidal activity against Trophozoites of Acanthamoeba hatchetti 11DS at 55 mM in phosphate buffered saline at pH 7 after 1 hr by hemocytometer using trypan blue staining in presence of 190 mM ammonium chloride; format: functional, organism-based
Acanthamoeba polyphaga [8] = assay: Amoebicidal activity against Trophozoites of Acanthamoeba polyphaga 5SU assessed as log reduction in cell count at 10 mM in phosphate buffered saline at pH 5 after 1 hr by hemocytometer using trypan blue stain in presence of 34 mM ammonium chloride; format: functional, organism-based
Acanthamoeba polyphaga [9] = assay: Amoebicidal activity against Trophozoites of Acanthamoeba polyphaga 5SU assessed as log reduction in cell count at 10 mM in phosphate buffered saline at pH 5 after 6 hrs by hemocytometer using trypan blue stain in presence of 34 mM ammonium chloride; format: functional, organism-based
Acanthamoeba castellanii [10] = assay: Amoebicidal activity against Trophozoites of Acanthamoeba castellanii 4CL assessed as log reduction in cell count at 10 mM in phosphate buffered saline at pH 7 after 6 hrs by hemocytometer using trypan blue stain; format: functional
Acanthamoeba polyphaga [11] = assay: Amoebicidal activity against Trophozoites of Acanthamoeba polyphaga 5SU assessed as killing time at 20 mM in peptone yeast extract glucose medium at pH 7 by hemocytometer using trypan blue stain; format: functional
Acanthamoeba hatchetti [12] = assay: Amoebicidal activity against Trophozoites of Acanthamoeba hatchetti 11DS assessed as complete killing time at 55 mM in phosphate buffered saline at pH 7 after 3 hrs by hemocytometer using trypan blue stain in presence of 190 mM ammonium chloride; format: functional, organism-based
Acanthamoeba polyphaga [13] = assay: Amoebicidal activity against Trophozoites of Acanthamoeba polyphaga 5SU assessed as reduction killing time at 55 mM in phosphate buffered saline at pH 7 by hemocytometer using trypan blue stain; format: functional, organism-based
Acanthamoeba castellanii [14] = assay: Amoebicidal activity against excysted trophozoites of Acanthamoeba castellanii 40AB at 55 mM in peptone yeast extract glucose medium after 6 days by hemocytometer using trypan blue stain; format: functional
Acanthamoeba castellanii [15] = assay: Amoebicidal activity against excysted trophozoites of Acanthamoeba castellanii 4CL at 55 mM in peptone yeast extract glucose medium after 4 days by hemocytometer using trypan blue stain; format: functional
Acanthamoeba polyphaga [16] = assay: Amoebicidal activity against Trophozoites of Acanthamoeba polyphaga 5SU assessed as killing time at 10 mM in phosphate buffered saline at pH 7 by hemocytometer using trypan blue stain; format: functional
Acanthamoeba hatchetti [17] = assay: Amoebicidal activity against Trophozoites of Acanthamoeba hatchetti 11DS assessed as log reduction in cell count at 20 mM in peptone yeast extract glucose medium at pH 7 after 6 hrs by hemocytometer using trypan blue stain; format: functional, organism-based
Acanthamoeba polyphaga [18] = assay: Amoebicidal activity against Trophozoites of Acanthamoeba polyphaga 5SU in peptone yeast extract glucose medium at pH 7 after 1 hr by hemocytometer using trypan blue stain in presence of 68 mM ammonium chloride; format: functional, organism-based
Acanthamoeba hatchetti [19] = assay: Amoebicidal activity against Trophozoites of Acanthamoeba hatchetti 11DS assessed as increase in reduction in cell count at 20 mM in peptone yeast extract glucose medium at pH 7 after 6 hrs by hemocytometer using trypan blue stain in presence of 580 mM ammonium chloride; format: functional, organism-based
Acanthamoeba castellanii [20] = assay: Amoebicidal activity against excysted trophozoites of Acanthamoeba castellanii 40AB at 55 mM in peptone yeast extract glucose medium after 4 days by hemocytometer using trypan blue stain; format: functional
Acanthamoeba castellanii [21] = assay: Amoebicidal activity against Trophozoites of Acanthamoeba castellanii 4CL assessed as log reduction in cell count at 20 mM in peptone yeast extract glucose medium at pH 7 after 24 hrs by hemocytometer using trypan blue stain; format: functional
Acanthamoeba polyphaga [22] = assay: Amoebicidal activity against Trophozoites of Acanthamoeba polyphaga 5SU assessed as reduction in killing time at 10 mM in phosphate buffered saline at pH 5 by hemocytometer using trypan blue stain in presence of 160 mM beta-alanine; format: functional, organism-based
Acanthamoeba hatchetti [23] = assay: Amoebicidal activity against Trophozoites of Acanthamoeba hatchetti 11DS in peptone yeast extract glucose medium at pH 7 after 6 hrs by hemocytometer using trypan blue stain in presence of 68 mM ammonium chloride; format: functional, organism-based
Acanthamoeba hatchetti [24] = assay: Amoebicidal activity against Trophozoites of Acanthamoeba hatchetti 11DS in phosphate buffered saline at pH 7 after 1 hr by hemocytometer using trypan blue stain in presence of 34 mM ammonium chloride; format: functional, organism-based
Acanthamoeba hatchetti [25] = assay: Amoebicidal activity against Trophozoites of Acanthamoeba hatchetti 11DS assessed as reduction of killing time at 10 mM in phosphate buffered saline at pH 5 by hemocytometer using trypan blue stain in presence of 34 mM ammonium chloride; format: functional, organism-based
Acanthamoeba castellanii [26] = assay: Amoebicidal activity against Trophozoites of Acanthamoeba castellanii 4CL assessed as killing time at 20 mM in peptone yeast extract glucose medium at pH 7 by hemocytometer using trypan blue stain; format: functional
Acanthamoeba hatchetti [27] = assay: Amoebicidal activity against Trophozoites of Acanthamoeba hatchetti 11DS in peptone yeast extract glucose medium at pH 7 after 6 hrs by hemocytometer using trypan blue stain; format: functional, organism-based
Acanthamoeba polyphaga [28] = assay: Amoebicidal activity against excysted trophozoites of Acanthamoeba polyphaga 5SU at 55 mM in peptone yeast extract glucose medium after 4 days by hemocytometer using trypan blue stain; format: functional
Acanthamoeba hatchetti [29] = assay: Amoebicidal activity against Trophozoites of Acanthamoeba hatchetti 11DS assessed as complete loss of viability at 55 mM in phosphate buffered saline after 24 hrs by hemocytometer using trypan blue stain in presence of 190 mM ammonium chloride; format: functional, organism-based
Acanthamoeba hatchetti [30] = assay: Amoebicidal activity against Trophozoites of Acanthamoeba hatchetti 11DS assessed as increase in reduction in cell count at 20 mM in peptone yeast extract glucose medium at pH 7 after 6 hrs by hemocytometer using trypan blue stain in presence of 68 mM ammonium chloride; format: functional, organism-based
Acanthamoeba polyphaga [31] = assay: Amoebicidal activity against Trophozoites of Acanthamoeba polyphaga 5SU in peptone yeast extract glucose medium at pH 7 after 24 hrs by hemocytometer using trypan blue stain in presence of 68 mM ammonium chloride; format: functional, organism-based
Acanthamoeba polyphaga [32] = assay: Amoebicidal activity against Trophozoites of Acanthamoeba polyphaga 5SU assessed as complete loss of viability at 55 mM in phosphate buffered saline incubated in xenic agar medium after 14 days by hemocytometer using trypan blue stain in presence of 190 mM ammonium chloride; format: functional, organism-based
Acanthamoeba hatchetti [33] = assay: Amoebicidal activity against Trophozoites of Acanthamoeba hatchetti 11DS in peptone yeast extract glucose medium at pH 7 after 1 hr by hemocytometer using trypan blue stain; format: functional, organism-based

Structure (SMILES): O=S(=O)(O)CCNCl
- Activity (Acanthamoeba hatchetti [1]): 2
- Activity (Acanthamoeba polyphaga [2]): inactive
- Activity (Acanthamoeba polyphaga [3]): Active
- EC50 (Acanthamoeba polyphaga [4]): 12.9 mM
- Activity (Acanthamoeba polyphaga [5]): 1000
- Activity (Acanthamoeba polyphaga [6]): inactive
- Activity (Acanthamoeba hatchetti [7]): inactive
- Activity (Acanthamoeba polyphaga [8]): Active
- Activity (Acanthamoeba polyphaga [9]): Active
- Activity (Acanthamoeba castellanii [10]): 2
- Activity (Acanthamoeba polyphaga [11]): 36 h
- Activity (Acanthamoeba hatchetti [12]): Active
- Activity (Acanthamoeba polyphaga [13]): Active
- Activity (Acanthamoeba castellanii [14]): 38000
- Activity (Acanthamoeba castellanii [15]): 2000
- Activity (Acanthamoeba polyphaga [16]): 15 h
- Activity (Acanthamoeba hatchetti [17]): Active
- EC50 (Acanthamoeba polyphaga [18]): 16.6 mM
- Activity (Acanthamoeba hatchetti [19]): inactive
- Activity (Acanthamoeba castellanii [20]): 13000
- Activity (Acanthamoeba castellanii [21]): 2
- Activity (Acanthamoeba polyphaga [22]): inactive
- EC50 (Acanthamoeba hatchetti [23]): 10.4 mM
- EC50 (Acanthamoeba hatchetti [24]): 12.9 mM
- Activity (Acanthamoeba hatchetti [25]): inactive
- Activity (Acanthamoeba castellanii [26]): 36 h
- EC50 (Acanthamoeba hatchetti [27]): 9.15 mM
- Activity (Acanthamoeba polyphaga [28]): 8000
- Activity (Acanthamoeba hatchetti [29]): Active
- Activity (Acanthamoeba hatchetti [30]): Active
- EC50 (Acanthamoeba polyphaga [31]): 10.2 mM
- Activity (Acanthamoeba polyphaga [32]): inactive
- EC50 (Acanthamoeba hatchetti [33]): 10.1 mM

Reference: ChEMBL document CHEMBL1151469, “Cytotoxic activity of N-chlorotaurine on Acanthamoeba spp” (Antimicrob Agents Chemother, 2008)
